{
  "source": "ChEMBL document CHEMBL1122438",
  "about": "“2-Phenylpyrazolo[1,5-a]pyrimidin-7-ones. A new class of nonsteroidal antiinflammatory drugs devoid of ulcerogenic activity” (J Med Chem, 1983)",
  "key": {"Mus musculus [1]": {"system": "Mus musculus", "test": "Percent reduction of edema in mice 3h after oral administration of 50 mg/kg in carrageenan model", "format": "functional"}, "Rattus norvegicus [2]": {"system": "Rattus norvegicus", "test": "Percent reduction of edema in rat on 23rd day after oral administration of 50 mg/kg in antiarthritis assay; i = Inactive", "format": "functional, organism-based", "parameters": "dose 50 mg/kg", "settings": "at 50 mg/kg"}, "Rattus norvegicus [3]": {"system": "Rattus norvegicus", "test": "Percent reduction of edema in rat on 23rd day after oral administration of 30 mg/kg in antiarthritis assay; i = Inactive", "format": "functional, organism-based", "parameters": "dose 30 mg/kg", "settings": "at 30 mg/kg"}, "Mus musculus [4]": {"system": "Mus musculus", "test": "Percent reduction of edema in mice 3h after oral administration of 30 mg/kg in carrageenan model", "format": "functional"}, "Mus musculus [5]": {"system": "Mus musculus", "test": "Percent reduction of edema in mice 3h after oral administration of 20 mg/kg in carrageenan model", "format": "functional"}, "Rattus norvegicus [6]": {"system": "Rattus norvegicus", "test": "Percent reduction of edema in rat on 23rd day after oral administration of 20 mg/kg in antiarthritis assay; i = Inactive", "format": "functional, organism-based", "parameters": "dose 20 mg/kg", "settings": "at 20 mg/kg"}, "Rattus norvegicus [7]": {"system": "Rattus norvegicus", "test": "Percent reduction of edema in rat on 23rd day after oral administration of 20 mg/kg in antiarthritis assay", "format": "functional"}, "Mus musculus [8]": {"system": "Mus musculus", "test": "Acute toxicity was evaluated as number of mice died (tested = 7) after 72nd hour when 15 mg/kg is administered intraperitoneally", "format": "organism-based", "parameters": "dose 15 mg/kg, route intraperitoneal", "settings": "in vivo, ip"}, "Mus musculus [9]": {"system": "Mus musculus", "test": "Acute toxicity was evaluated as number of mice died (tested = 7) after 72nd hour when 75 mg/kg is administered intraperitoneally", "format": "organism-based", "parameters": "dose 75 mg/kg, route intraperitoneal", "settings": "in vivo, ip"}, "Mus musculus [10]": {"system": "Mus musculus", "test": "Acute toxicity was evaluated as number of mice died (tested = 7) after 72nd hour when 8 mg/kg is administered intraperitoneally", "format": "organism-based", "parameters": "dose 8 mg/kg, route intraperitoneal", "settings": "in vivo, ip"}, "[11]": {"test": "Toxic activity is expressed as LD50 values", "format": "toxicity, organism-based", "settings": "mouse, in vivo"}, "[12]": {"test": "Therapeutic index was expressed as LD50/ED50 carragreenin model", "settings": "mouse; read-out: TI"}, "Rattus norvegicus [13]": {"system": "Rattus norvegicus", "test": "Analgesic activity evaluated by measuring % analgesic effect, after oral administration of 1.0 mg/kg in acetic acid writhing test", "format": "functional"}, "Rattus norvegicus [14]": {"system": "Rattus norvegicus", "test": "Analgesic activity evaluated by measuring % analgesic effect, after oral administration of 120 mg/kg in acetic acid writhing test", "format": "functional"}, "Rattus norvegicus [15]": {"system": "Rattus norvegicus", "test": "Analgesic activity evaluated by measuring % analgesic effect, after oral administration of 3.0 mg/kg in acetic acid writhing test", "format": "functional"}, "Mus musculus [16]": {"organism": "Mus musculus", "test": "Analgesic activity in acetic acid writhing test, activity is expressed as ED50 values", "format": "functional"}, "Rattus norvegicus [17]": {"organism": "Rattus norvegicus", "test": "Antiinflammatory activity in carrageenan model, activity is expressed as ED50 values", "format": "functional"}, "Rattus norvegicus [18]": {"system": "Rattus norvegicus", "test": "Antiinflammatory activity evaluated by measuring % reduction of edema, 3h after oral administration of 5 mg/kg in carrageenan model", "format": "functional"}, "Rattus norvegicus [19]": {"system": "Rattus norvegicus", "test": "Antiinflammatory activity evaluated by measuring % reduction of edema, 3h after oral administration of 1 mg/kg in carrageenan model", "format": "functional"}, "Rattus norvegicus [20]": {"system": "Rattus norvegicus", "test": "Percent reduction of edema in rat on 23rd day after oral administration of 3 mg/kg in antiarthritis assay", "format": "functional"}, "Rattus norvegicus [21]": {"system": "Rattus norvegicus", "test": "Median ulcerogenic dose was determined at 30 mg/kg dose", "format": "functional"}, "Rattus norvegicus [22]": {"system": "Rattus norvegicus", "test": "Ulcer index at 30 mg/kg concentration", "format": "functional"}, "Rattus norvegicus [23]": {"system": "Rattus norvegicus", "test": "Ulcer index at 50 mg/kg concentration", "format": "functional"}, "Rattus norvegicus [24]": {"system": "Rattus norvegicus", "test": "Ulcer index at 5 mg/kg concentration", "format": "functional"}, "Mus musculus [25]": {"system": "Mus musculus", "test": "Percent reduction of edema in mice 3h after oral administration of 3 mg/kg in carrageenan model", "format": "functional"}, "Mus musculus [26]": {"system": "Mus musculus", "test": "Acute toxicity was evaluated as number of mice died (tested = 7) after 72nd hour when 12 mg/kg is administered intraperitoneally", "format": "organism-based", "parameters": "dose 12 mg/kg, route intraperitoneal", "settings": "in vivo, ip"}, "Rattus norvegicus [27]": {"system": "Rattus norvegicus", "test": "Percent reduction of edema in rat on 23rd day after oral administration of 300 mg/kg in antiarthritis assay; i = Inactive", "format": "functional, organism-based", "parameters": "dose 300 mg/kg", "settings": "at 300 mg/kg"}, "Mus musculus [28]": {"system": "Mus musculus", "test": "Percent reduction of edema in mice 3h after oral administration of 300 mg/kg in carrageenan model", "format": "functional"}, "Mus musculus [29]": {"system": "Mus musculus", "test": "Percent reduction of edema in mice 3h after oral administration of 100 mg/kg in carrageenan model", "format": "functional"}, "Rattus norvegicus [30]": {"system": "Rattus norvegicus", "test": "Percent reduction of edema in rat on 23rd day after oral administration of 100 mg/kg in antiarthritis assay", "format": "functional"}},
  "note": "The source made the active and inactive calls. The calls are words filed in the database; no cut-off is given here.",
  "data": [
    {"smiles": "Cc1cc(=O)n2nc(-c3ccccc3)cc2n1C", "values": [
      {"measurement": "Reduction", "setting": "Mus musculus [1]", "value": 56.7, "unit": "%"},
      {"measurement": "Reduction", "setting": "Rattus norvegicus [2]", "value": "inactive"}
    ]},
    {"smiles": "CCn1ccc(=O)n2nc(-c3ccccc3)c(Br)c12", "values": [
      {"measurement": "Reduction", "setting": "Rattus norvegicus [3]", "value": "inactive"},
      {"measurement": "Reduction", "setting": "Mus musculus [4]", "value": 40.5, "unit": "%"}
    ]},
    {"smiles": "Cn1ccc(=O)n2nccc12", "values": [
      {"measurement": "Reduction", "setting": "Mus musculus [5]", "value": 0, "unit": "%"},
      {"measurement": "Reduction", "setting": "Rattus norvegicus [6]", "value": "inactive"}
    ]},
    {"smiles": "O=c1ccn(Cc2ccccc2)c2cc(-c3ccccc3)nn12", "values": [
      {"measurement": "Reduction", "setting": "Mus musculus [5]", "value": 5.8, "unit": "%"},
      {"measurement": "Reduction", "setting": "Rattus norvegicus [7]", "value": 18.2, "unit": "%"}
    ]},
    {"smiles": "COc1ccc2c(c1)c(CC(=O)O)c(C)n2C(=O)c1ccc(Cl)cc1", "note": "[INDOMETHACIN]", "values": [
      {"measurement": "Acute toxicity", "setting": "Mus musculus [8]", "value": 3},
      {"measurement": "Acute toxicity", "setting": "Mus musculus [9]", "value": 7},
      {"measurement": "Acute toxicity", "setting": "Mus musculus [10]", "value": 1},
      {"measurement": "LD50", "setting": "[11]", "value": 19.9, "unit": "mg/kg"},
      {"measurement": "selectivity ratio", "setting": "[12]", "value": 10.9},
      {"measurement": "Analgesic effect", "setting": "Rattus norvegicus [13]", "value": 28, "unit": "%"},
      {"measurement": "Analgesic effect", "setting": "Rattus norvegicus [14]", "value": 28.4, "unit": "%"},
      {"measurement": "Analgesic effect", "setting": "Rattus norvegicus [15]", "value": 57, "unit": "%"},
      {"measurement": "ED50", "setting": "Mus musculus [16]", "value": 2.5, "unit": "mg/kg"},
      {"measurement": "ED50", "setting": "Rattus norvegicus [17]", "value": 1.83, "unit": "mg/kg"},
      {"measurement": "Reduction", "setting": "Rattus norvegicus [18]", "value": 69.2, "unit": "%"},
      {"measurement": "Reduction", "setting": "Rattus norvegicus [19]", "value": 36.7, "unit": "%"},
      {"measurement": "Reduction", "setting": "Rattus norvegicus [20]", "value": 39, "unit": "%"},
      {"measurement": "UD50", "setting": "Rattus norvegicus [21]", "value": 12.1, "unit": "mg/kg"},
      {"measurement": "UI", "setting": "Rattus norvegicus [22]", "value": 2.36},
      {"measurement": "UI", "setting": "Rattus norvegicus [23]", "value": 3.3},
      {"measurement": "UI", "setting": "Rattus norvegicus [24]", "value": 1.4},
      {"measurement": "Reduction", "setting": "Mus musculus [25]", "value": 62.4, "unit": "%"},
      {"measurement": "Acute toxicity", "setting": "Mus musculus [26]", "value": 2}
    ]},
    {"smiles": "Cc1cn(C)c2cc(-c3ccccc3)nn2c1=O", "values": [
      {"measurement": "Reduction", "setting": "Rattus norvegicus [27]", "value": "inactive"},
      {"measurement": "Reduction", "setting": "Mus musculus [28]", "value": 68.7, "unit": "%"}
    ]},
    {"smiles": "O=c1ccn(CCO)c2cc(-c3ccccc3)nn12", "values": [
      {"measurement": "Reduction", "setting": "Rattus norvegicus [3]", "value": "inactive"},
      {"measurement": "Reduction", "setting": "Mus musculus [4]", "value": 16.5, "unit": "%"}
    ]},
    {"smiles": "CCn1ccc(=O)n2nc(-c3ccccc3)c(SSc3c(-c4ccccc4)nn4c(=O)ccn(CC)c34)c12", "values": [
      {"measurement": "Reduction", "setting": "Rattus norvegicus [3]", "value": "inactive"},
      {"measurement": "Reduction", "setting": "Mus musculus [4]", "value": 37.5, "unit": "%"}
    ]},
    {"smiles": "CCn1ccc(=O)n2nc(C)cc12", "values": [
      {"measurement": "Reduction", "setting": "Rattus norvegicus [3]", "value": "inactive"},
      {"measurement": "Reduction", "setting": "Mus musculus [4]", "value": 7.3, "unit": "%"}
    ]},
    {"smiles": "CCn1c(=O)ccn2nc(-c3ccccc3)cc12", "values": [
      {"measurement": "Reduction", "setting": "Mus musculus [29]", "value": 32.2, "unit": "%"},
      {"measurement": "Reduction", "setting": "Rattus norvegicus [30]", "value": 25.7, "unit": "%"}
    ]},
    {"smiles": "Oc1ccnc2cc(-c3ccccc3)nn12", "values": [
      {"measurement": "Reduction", "setting": "Rattus norvegicus [27]", "value": "inactive"},
      {"measurement": "Reduction", "setting": "Mus musculus [28]", "value": 27.3, "unit": "%"}
    ]},
    {"smiles": "CC(C)n1ccc(=O)n2nc(-c3ccccc3)cc12", "values": [
      {"measurement": "Reduction", "setting": "Mus musculus [5]", "value": 3.5, "unit": "%"},
      {"measurement": "Reduction", "setting": "Rattus norvegicus [6]", "value": "inactive"}
    ]}
  ]
}
